From ChEMBL document CHEMBL2074320, “Polyspecific organic anion transporting polypeptides mediate hepatic uptake of amphipathic type II organic cations” (J Pharmacol Exp Ther, 1999)

Experiments:
[1] = target: T1, Solute carrier organic anion transporter family member 1A2 (Homo sapiens, UniProt P46721); assay: (§1) TP_TRANSPORTER: uptake in Xenopus laevis oocytes; type: functional, cell-based, Oocyte; conditions: oocyte
T1 sequence (P46721 whole entry): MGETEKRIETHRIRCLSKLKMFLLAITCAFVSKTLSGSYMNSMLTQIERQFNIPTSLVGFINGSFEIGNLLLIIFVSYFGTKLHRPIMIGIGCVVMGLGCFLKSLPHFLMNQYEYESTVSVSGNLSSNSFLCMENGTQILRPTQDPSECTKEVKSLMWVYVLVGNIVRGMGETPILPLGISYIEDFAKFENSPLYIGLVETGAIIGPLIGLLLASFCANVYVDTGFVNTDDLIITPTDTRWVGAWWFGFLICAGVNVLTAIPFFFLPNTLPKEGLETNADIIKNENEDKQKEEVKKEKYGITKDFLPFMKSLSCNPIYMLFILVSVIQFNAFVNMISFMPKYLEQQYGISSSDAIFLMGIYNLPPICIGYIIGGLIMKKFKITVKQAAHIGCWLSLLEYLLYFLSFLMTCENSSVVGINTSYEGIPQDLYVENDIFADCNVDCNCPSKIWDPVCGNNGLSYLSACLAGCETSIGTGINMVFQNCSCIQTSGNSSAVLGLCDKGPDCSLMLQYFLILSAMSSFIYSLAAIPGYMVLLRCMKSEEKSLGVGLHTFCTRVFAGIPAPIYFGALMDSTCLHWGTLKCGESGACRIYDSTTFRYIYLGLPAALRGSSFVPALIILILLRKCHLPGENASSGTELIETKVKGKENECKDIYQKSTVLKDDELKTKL

[2] = target: T2, Solute carrier organic anion transporter family member 1A1 (Rattus norvegicus, UniProt P46720); assay: as §1; type: functional, cell-based; conditions: oocyte
T2 sequence (P46720 whole entry): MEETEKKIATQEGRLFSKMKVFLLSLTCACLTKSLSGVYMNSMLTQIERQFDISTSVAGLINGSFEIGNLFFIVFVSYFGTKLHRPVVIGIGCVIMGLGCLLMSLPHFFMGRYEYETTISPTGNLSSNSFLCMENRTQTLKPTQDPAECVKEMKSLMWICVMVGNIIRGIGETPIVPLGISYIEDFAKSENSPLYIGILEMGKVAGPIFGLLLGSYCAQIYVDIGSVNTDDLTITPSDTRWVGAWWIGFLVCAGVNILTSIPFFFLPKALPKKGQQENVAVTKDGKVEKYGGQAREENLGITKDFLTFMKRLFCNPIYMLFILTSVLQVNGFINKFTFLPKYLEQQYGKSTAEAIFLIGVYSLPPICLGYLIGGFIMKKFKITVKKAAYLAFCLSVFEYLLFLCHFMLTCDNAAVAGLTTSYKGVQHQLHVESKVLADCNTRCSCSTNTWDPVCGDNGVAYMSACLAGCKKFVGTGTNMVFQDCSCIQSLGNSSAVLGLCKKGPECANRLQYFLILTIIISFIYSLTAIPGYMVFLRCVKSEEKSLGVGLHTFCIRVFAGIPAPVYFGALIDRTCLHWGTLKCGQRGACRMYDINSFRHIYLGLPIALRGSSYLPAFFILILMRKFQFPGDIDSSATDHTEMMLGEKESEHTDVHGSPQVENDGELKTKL

[3] = target: T3, Solute carrier organic anion transporter family member 1A4 (Rattus norvegicus, UniProt O35913); assay: as §1; type: functional, cell-based; conditions: oocyte
T3 sequence (O35913 whole entry): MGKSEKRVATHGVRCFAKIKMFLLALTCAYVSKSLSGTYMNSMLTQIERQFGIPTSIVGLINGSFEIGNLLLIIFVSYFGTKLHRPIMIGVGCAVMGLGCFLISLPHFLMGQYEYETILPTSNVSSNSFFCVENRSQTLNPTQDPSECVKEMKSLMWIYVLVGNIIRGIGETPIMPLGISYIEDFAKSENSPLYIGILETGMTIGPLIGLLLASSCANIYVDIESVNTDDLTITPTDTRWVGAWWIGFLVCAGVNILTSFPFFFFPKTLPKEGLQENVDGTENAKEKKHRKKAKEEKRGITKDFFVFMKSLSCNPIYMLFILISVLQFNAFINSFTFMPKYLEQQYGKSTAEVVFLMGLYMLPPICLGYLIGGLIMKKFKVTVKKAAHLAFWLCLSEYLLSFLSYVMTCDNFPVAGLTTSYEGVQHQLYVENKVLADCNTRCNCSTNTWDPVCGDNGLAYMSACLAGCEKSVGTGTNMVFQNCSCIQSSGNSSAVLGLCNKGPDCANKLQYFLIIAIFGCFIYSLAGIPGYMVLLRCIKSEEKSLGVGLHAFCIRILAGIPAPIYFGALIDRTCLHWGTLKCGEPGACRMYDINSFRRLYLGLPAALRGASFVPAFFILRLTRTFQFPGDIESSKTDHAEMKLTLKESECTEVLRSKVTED

[4] = target: T4, Solute carrier organic anion transporter family member 1A2 (OATP1A2) (Homo sapiens, UniProt P46721); assay: as §1; type: functional, cell-based, Oocyte; conditions: Xenopus laevis oocytes expressing the transporter
T4 sequence (P46721 whole entry): T1 sequence (P46721 whole entry)

Structure (SMILES) | Activity [1] | Activity [2] | Activity [3] | Km [4]
CCC1C[N+]2(CCCC3(C)N=N3)C3CC45c6ccccc6N(C)C4C2CC1C3C5O (configuration not stated) | substrate [+] | substrate [+] | substrate [+] | 
C=C[C@H]1C[N+]2(C)CC[C@H]1C[C@H]2[C@H](O)c1ccnc2ccc(OC)cc12 |  | substrate [+] | is not a substrate [-] | 5.1 µM
C=C[C@H]1C[N+]2(C)CC[C@H]1C[C@@H]2[C@@H](O)c1ccnc2ccc(OC)cc12 |  | is not a substrate [-] | is not a substrate [-] | 25.6 µM
C=CC[N+]1([C@H]2C[C@H]3[C@@H]4CC[C@H]5C[C@H](O)[C@@H](N6CCOCC6)C[C@]5(C)[C@H]4CC[C@]3(C)[C@H]2OC(C)=O)CCCC1 [ROCURONIUM] | substrate [+] | substrate [+] | substrate [+] | 
